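1) Cells in 96-well plates. 2) Compound, 48 h, 5 concentrations. 3) Linear interpolation between surrounding doses. 4) Unreached endpoint = highest concentration. At the GI50, growth is halved. The concentration for full growth arrest is given as TGI.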

This passage reports GI50 and TGI results from PubChem BioAssay (NCI).

Holding throughout (test): NCI tumour cell line growth inhibition, 48 h
In assay [1] the test system is MDA-MB-435.
Assay [2] has as its system SK-MEL-2 melanoma.
Assay [3] concerns UO-31 renal.
Assay [4] relates to UACC-257 melanoma.
Assay [5] relates to SN12C renal.
Assay [6] has as its system SF-295 CNS.
In assay [7] the test system is NCI/ADR-RES ovarian.
The subject of assay [8] is RXF 393 renal.
The test system of assay [9] is HL-60(TB) leukemia.
In assay [10] the test system is OVCAR-3 ovarian.

For `COc1cc(OC)cc(-c2ccc(-c3ccc(C(=N)N)o3)o2)c1`, the GI50 in [1] is 1.52 µM; in assay [2] it was 2.44 µM; in [3], 2.67 µM; in [4], 2.41 µM; in assay [5], 2.38 µM; in [6], 2.06 µM. Further, the GI50 in assay [7] is 8.26 µM; in assay [8], 1.93 µM; in [9], 1.9 µM; in assay [10], 3.26 µM. Besides, the TGI was 3.12 µM in [1]; 5.35 µM in assay [2]; 9.16 µM in assay [3]; 5.41 µM in assay [4]; 5.15 µM in [5]; 4.25 µM in [6]. For the same compound, the TGI in assay [7] stood at 22.4 µM; in [8] it was 5.24 µM; in assay [9], 4.24 µM; in [10] it was 11.3 µM.
As for `Cc1ccc(CS/C(=C\c2ccc([N+](=O)[O-])cc2)C(=O)c2ccc(F)cc2)cc1`, the GI50 is 2.41 µM in assay [1]; 15.3 µM in [2]; 2.72 µM in assay [3]; 5.61 µM in assay [4]; 2.98 µM in [5]; 2.25 µM in assay [6]. Also, the GI50 in [7] was 3.28 µM; in assay [8] it was 13 µM; in assay [9], 2.9 µM; in assay [10], 1.95 µM. The TGI amounted to 6.49 µM in assay [1]; 40.5 µM in assay [2]; 13.3 µM in assay [3]; 19.9 µM in assay [4]; 9.48 µM in assay [5]; 6.48 µM in assay [6]. Besides, the TGI in [7] was over 100 µM; in assay [8] it was 31.8 µM; in assay [9] it was 17.3 µM; in assay [10], 4.02 µM.
With `O=C(c1ccco1)c1nc2ccc(C(F)(F)F)cc2[n+]([O-])c1C(F)(F)F`, the GI50 is over 100 µM in assay [1]; 87.7 µM in assay [2]; over 100 µM in assay [3]; 26.5 µM in assay [4]; over 100 µM in assay [5]; 53.2 µM in assay [6]. Further, the GI50 in [7] was over 100 µM; in assay [8], 22.2 µM; in assay [9], 95.2 µM; in assay [10], 98.8 µM. The TGI is over 100 µM in assay [1]; over 100 µM in assay [2]; over 100 µM in [3]; 99.4 µM in [4]; over 100 µM in [5]; over 100 µM in assay [6]. The TGI was over 100 µM in assay [7], 80 µM in assay [8], over 100 µM in assay [9] and over 100 µM in assay [10].
Take `COC(=O)c1cc2c3ccccc3[nH]c2c2ncccc12`: the GI50 in [1] was over 100 µM; in assay [2], over 100 µM; in [3], 69.4 µM; in [4] it was over 100 µM; in [5], over 100 µM; in assay [6], 36.9 µM. Besides, the GI50 in [7] is 56.2 µM; in [8], over 100 µM; in assay [9], over 100 µM; in assay [10] it was over 100 µM. The TGI in assay [1], in assay [2], in assay [3], in [4], in assay [5] and in assay [6] was over 100 µM throughout. The TGI in assay [7], in assay [8], in [9] and in assay [10] was over 100 µM throughout.
Turning to `N#Cc1ccc(C#Cc2ccccc2C#CCCCCO)cc1`, the GI50 in [1] is 18.9 µM; in assay [2], 17.1 µM; in [3] it was 16.9 µM; in assay [4], 17.3 µM; in assay [5] it was 17.7 µM; in [6], 21.3 µM. Besides, the GI50 in assay [7] was 17.7 µM; in assay [8] it was 7.05 µM; in assay [9] it was 23.7 µM; in assay [10], 19.9 µM. Also, the TGI came to 35.6 µM in assay [1]; 36.4 µM in assay [2]; 35.3 µM in [3]; 31.4 µM in assay [4]; 31.8 µM in assay [5]; 41 µM in assay [6]. Besides, the TGI stood at 36.9 µM in [7], 24.4 µM in [8], 45.6 µM in assay [9] and 39.6 µM in assay [10].
`Cc1cc(N(CCOS(C)(=O)=O)CCOS(C)(=O)=O)ccc1C=Nc1ccc(-c2nc(Cc3ccccc3)sc2C)cc1`: the TGI was determined as 26.6 µM in assay [1]; 34.9 µM in assay [2]; 18.3 µM in assay [3]; 28.4 µM in assay [4]; 26.3 µM in assay [5]; 32.4 µM in assay [6]. Moreover, the TGI came to 47.8 µM in assay [7], 4.92 µM in assay [8], 28.9 µM in [9] and 19.6 µM in [10].
